Measured values taken from ChEMBL document CHEMBL1201862, “PubChem BioAssay data set” (2004).
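Step 1: Grow cells in 96-well plates. Step 2: Expose to compound for 48 hours at 5 concentrations. Step 3: Interpolate endpoints linearly; if unreached, use highest concentration. At the GI50, growth is halved.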 The source made the active and inactive calls. Rule as the data show it: active = GI50 up to about 1.1 µM and inactive = higher.

Experiments:
Experiment in all cases: growth of human tumour cells (NCI), 48 h
UACC-62 = test system: UACC-62
K562 = test system: K562
M14 = test system: M14
HCC 2998 = test system: HCC 2998
SF-268 = test system: SF-268
HL-60 = test system: HL-60
SW-620 = test system: SW-620
IGROV-1 = test system: IGROV-1
SF-539 = test system: SF-539
SK-MEL-28 = test system: SK-MEL-28
SK-MEL-2 = test system: SK-MEL-2
CCRF-CEM = test system: CCRF-CEM
A498 = test system: A498
HOP-92 = test system: HOP-92
OVCAR-4 = test system: OVCAR-4
786-0 = test system: 786-0
U-251 = test system: U-251
A549 = test system: A549
HOP-62 = test system: HOP-62
SK-MEL-5 = test system: SK-MEL-5

SMILES	GI50 (UACC-62)	GI50 (K562)	GI50 (M14)	GI50 (HCC 2998)	GI50 (SF-268)	GI50 (HL-60)	GI50 (SW-620)	GI50 (IGROV-1)	GI50 (SF-539)	GI50 (SK-MEL-28)	GI50 (SK-MEL-2)	GI50 (CCRF-CEM)	GI50 (A498)	GI50 (HOP-92)	GI50 (OVCAR-4)	GI50 (786-0)	GI50 (U-251)	GI50 (A549)	GI50 (HOP-62)	GI50 (SK-MEL-5)
CCC(C)C(NC(=O)C(CCCCN)NC(=O)C(NC(=O)C(CCC(N)=O)NC(=O)C(CCCNC(=N)N)NC(C)=O)C(C)CC)C(=O)NC(Cc1c[nH]c2ccccc12)C(=O)NC(Cc1ccccc1)C(=O)NC(CCC(N)=O)C(=O)NC(CC(N)=O)C(=O)NC(CCCNC(=N)N)C(=O)NC(CCCNC(=N)N)C(=O)NC(CCSC)C(=O)NC(CCCCN)C(=O)NC(Cc1c[nH]c2ccccc12)C(=O)NC(CCCCN)C(=O)NC(CCCCN)C(N)=O (stereo not given)	> 50 µM (inactive)	22.8 µM (inactive)	17.9 µM (inactive)	> 50 µM (inactive)	45.1 µM (inactive)	> 50 µM (inactive)	> 50 µM (inactive)	> 50 µM (inactive)	19.7 µM (inactive)	> 50 µM (inactive)	> 50 µM (inactive)	22.4 µM (inactive)	> 50 µM (inactive)	> 50 µM (inactive)	> 50 µM (inactive)	12 µM (inactive)	17.8 µM (inactive)	> 50 µM (inactive)	39.6 µM (inactive)	22.5 µM (inactive)
c1ccc(CCN(Cc2nc3ccccc3[nH]2)Cc2nc3ccccc3[nH]2)cc1	13.4 µM (inactive)	2.86 µM (inactive)	12.9 µM (inactive)	16.9 µM (inactive)	13.6 µM (inactive)	2.41 µM (inactive)	10.3 µM (inactive)	8.15 µM (inactive)	20.7 µM (inactive)	13.7 µM (inactive)	18 µM (inactive)	3.39 µM (inactive)	13.6 µM (inactive)	12.5 µM (inactive)	17.5 µM (inactive)	15.9 µM (inactive)	6.59 µM (inactive)	17.1 µM (inactive)	11.3 µM (inactive)	3.86 µM (inactive)
CC(=O)OC1CC2c3cccc4c3C(CC2N(C)C1=O)CN4C(=O)c1ccccc1 (stereo not given)	20.3 µM (inactive)	27.5 µM (inactive)	22.1 µM (inactive)	15 µM (inactive)	2.2 µM (inactive)	15.2 µM (inactive)	23.4 µM (inactive)	14.6 µM (inactive)	25.8 µM (inactive)	21.6 µM (inactive)	20.5 µM (inactive)	20.7 µM (inactive)	21.5 µM (inactive)	4.25 µM (inactive)	22.1 µM (inactive)	15.2 µM (inactive)	15.7 µM (inactive)	17.5 µM (inactive)	23.2 µM (inactive)	14.4 µM (inactive)
COc1ccc(C(CC(=O)c2ccc3c(c2)OCO3)c2c(O)oc3ccccc3c2=O)cc1OC (stereo not given)	40.6 µM (inactive)	63.5 µM (inactive)	1 µM (active)	> 100 µM (inactive)	> 100 µM (inactive)	> 100 µM (inactive)	> 100 µM (inactive)	> 100 µM (inactive)	> 100 µM (inactive)	> 100 µM (inactive)	> 100 µM (inactive)	> 100 µM (inactive)	> 100 µM (inactive)	38.5 µM (inactive)	61.8 µM (inactive)	> 100 µM (inactive)	> 100 µM (inactive)	51.1 µM (inactive)	> 100 µM (inactive)	47 µM (inactive)
C/C(=N\NC(=N)N)C(CN(C)C)C(c1ccccc1)c1c(O)c2ccccc2oc1=O (stereo not given)	> 47.6 µM (inactive)	> 100 µM (inactive)	> 100 µM (inactive)	> 100 µM (inactive)	> 100 µM (inactive)	> 100 µM (inactive)	> 100 µM (inactive)	> 100 µM (inactive)	> 100 µM (inactive)	> 100 µM (inactive)	> 100 µM (inactive)	> 100 µM (inactive)	> 100 µM (inactive)	4.91 µM (inactive)	> 100 µM (inactive)	> 100 µM (inactive)	> 100 µM (inactive)	> 100 µM (inactive)	> 26.6 µM (inactive)	> 100 µM (inactive)
COc1ccc(OCc2ccc3nc(-c4ccccc4)c(Cl)nc3c2)cc1	> 10 µM (inactive)	0.0889 µM (active)	33.9 µM (inactive)	27.7 µM (inactive)	25.2 µM (inactive)	12.3 µM (inactive)	43.2 µM (inactive)	38 µM (inactive)	12.9 µM (inactive)	47.3 µM (inactive)	26.9 µM (inactive)	15.8 µM (inactive)	26.4 µM (inactive)	14.5 µM (inactive)	19.4 µM (inactive)	10.6 µM (inactive)	12.3 µM (inactive)	40 µM (inactive)	14.2 µM (inactive)	6.89 µM (inactive)
CC(C)=CCc1ccc2[nH]c3c(c2c1)C(=O)C(=O)C(C)=C3C(O)C(C)O (stereo not given)	5.52 µM (inactive)	2.07 µM (inactive)	1.91 µM (inactive)	6.38 µM (inactive)	12.9 µM (inactive)	0.769 µM (active)	2.09 µM (inactive)	2.36 µM (inactive)	5.98 µM (inactive)	7.19 µM (inactive)	8.2 µM (inactive)	1.55 µM (inactive)	12.5 µM (inactive)	1.51 µM (inactive)	3.72 µM (inactive)	1.87 µM (inactive)	6.03 µM (inactive)	21.8 µM (inactive)	20.3 µM (inactive)	2.45 µM (inactive)
O=C1c2ccc(O)cc2C(=O)c2ccc(O)cc21	56.8 µM (inactive)	50.1 µM (inactive)	58.9 µM (inactive)	46.3 µM (inactive)	55.3 µM (inactive)	70.5 µM (inactive)	92.5 µM (inactive)	48.3 µM (inactive)	40.9 µM (inactive)	78.5 µM (inactive)	45.7 µM (inactive)	59.3 µM (inactive)	38.5 µM (inactive)	63.1 µM (inactive)	> 100 µM (inactive)	42.7 µM (inactive)	49.4 µM (inactive)	54.6 µM (inactive)	30.6 µM (inactive)	> 100 µM (inactive)
CC(=O)Nc1ccc(/C=c2\sc3nnc(-c4cccnc4)n3c2=O)cc1	13.4 µM (inactive)	22.4 µM (inactive)	18.7 µM (inactive)	20.7 µM (inactive)	25.2 µM (inactive)	16.4 µM (inactive)	17.8 µM (inactive)	16.9 µM (inactive)	18.7 µM (inactive)	17 µM (inactive)	20.9 µM (inactive)	17.4 µM (inactive)	75.2 µM (inactive)	12 µM (inactive)	14.6 µM (inactive)	16.6 µM (inactive)	17.8 µM (inactive)	42.1 µM (inactive)	21.8 µM (inactive)	17.4 µM (inactive)
